From US20260272879A1, “ANION-BINDING AROMATIC OLIGOAMIDE MACROCYCLES AND METHODS OF MAKING AND USING SAME” (The Research Foundation for The State University of New York, priority 2023, published 2026) come the findings set out here.

In assay [1] the test system is Human bronchial epithelial (HBE) cells from cystic fibrosis (CF) patients. The assay is described as follows: Airway surface liquid (ASL) thickness, confocal imaging. In kind it is cell-based. Conditions: CF HBE cultures, c5a 5 μM with 1% DMSO in PBS apically daily for five days. Here is the method:
Primary Cell Culture. Human bronchial epithelial (HBE) cells from cystic fibrosis (CF) patients (DF508 homozygous) were obtained from the UNC-CF Tissue Culture Core under the auspices of protocols approved by the UNC Institutional Review Board using previously reported methodologies. Cultures on 12-mm permeable supports (Transwell-Clear; Costar) were maintained in a well-humidified (>95%) incubator (5% CO2) at 37° C. during cellular differentiation (3-4 weeks after plating).
Confocal imaging studies. CF HBE cultures were treated with apically with c5a (5 μM in 1% DMSO) or vehicle control (1% DMSO in PBS) daily for 5 days prior to imaging. The height of the luminal airway surface layer (ASL) was visualized by adding a cell-impermeant dye (Texas Red-dextran 70 kDa; 0.1%) to the c5a and vehicle control on the evening prior to imaging. […] The thickness of the ASL layer in c5a and control cultures were measured by high-speed X-Z confocal scanning. […]
Human bronchial epithelial (HBE) cells isolated from CF patients were cultured at the time of lung transplant as a model system for diseased airways. […] The thickness of the ASL layer on the surface of the HBE cell layer can be conveniently measured by determining the thickness of the fluorescently-labeled fluid layer on the airway surface using X-Z confocal scanning microscopy (FIG. 117b). […]

Assay [2] is described as follows: 1H NMR titration, binding of chloride. Conditions: DMSO-d6:CDCl3 (15:85, v/v), 25° C., NMR titration (protons a and b). Here is the method: ^1H NMR Titration methods. Titrations of 4c and 6c with anions as their tetra-n-butyl ammonium (TBA) salts were carried out by ^1H NMR (400 MHz on Bruker-400) at room temperature (298 K). 0.5 mL of receptor 4c (5.0 mM) or 6c (2.0 mM) were prepared in the rubber-cap NMR tubes. Aliquots of concentrated TBACl or TBAI solution (50 mM for the titration of 4c and 20 mM for the titration of 6c) containing the same amount of receptors were added into the receptor solution using 20 microliter pipette. An initial ^1H NMR spectrum was collected and additional spectra were obtained after each injection of TBACl or TBAI solution. All titration ^1H NMR spectra were stacked together and the chemical shifts of amide protons were then fitted to the proposed 1:1 binding model using BindFit v0.5 (http://app.supramolecular.org/bindfit/).
(§1) Anion binding with four amides, i.e., L1mer-L4mer, was studied in the mixed solvents of CD3CN/CDCl3 (1/9, v/v) by titrating an amide host with 0 to 5 equivalents of tetrabutylammonium (n-Bu4N^+) salt of the corresponding anion. The binding of chloride, bromide, iodide, and nitrate was examined with the four amides in CDCl3 containing 10% CD3CN. The titration data were collected by monitoring the changes in chemical shifts of the backbone amide protons and the inner aromatic protons with varying ratios of the anion guests. Job plots indicate that these linear oligoamides and their anion guests bind in a 1:1 stoichiometry.
(§2) The binding of anions by macrocycle 7c was examined in CH3CN/CHCl3 (6/4, v/v) and in DMSO by titrating with various equivalents of the salts of chloride, iodide. nitrate, and dihydrogen phosphate, with tetrabutylammonium (n-Bu4N^+) being the counterion ion. Following the changes in the chemical shifts of backbone amide protons and “inner” aromatic protons allowed the determination of binding constants.
^1H NMR titration methods. Titrations of c5a and c5b with anions as their tetra-n-butylammonium (TBA), tetra-ethylammonium (TEA) and tetra-methylammonium (TMA) salts were carried out by ^1H NMR (400 MHz) at 25° C. […]

Assay [3] is described as follows: 1H NMR titration, binding of ClO4^−. Conditions: DMSO-d6:CDCl3 (15:85, v/v), 25° C. Here is the method:
(§3) ^1H NMR titration methods. Titrations of c5a and c5b with anions as their tetra-n-butylammonium (TBA), tetra-ethylammonium (TEA) and tetra-methylammonium (TMA) salts were carried out by ^1H NMR (400 MHz) at 25° C. 0.4 mL of corresponding hosts solutions were prepared in the rubber-cap NMR tubes. Aliquots of concentrated guest solution containing hosts were added into the NMR tubes using 20 microliter pipette. An initial ^1H NMR spectrum was collected and additional spectra were obtained after each injection of guest solution. All titration ^1H NMR spectra were stacked together and the chemical shifts of the internal aromatic CH proton were then fitted to 1:1 binding model using BindFit v0.5 (http://app.supramolecular.org/bindfit/) to evaluate binding constants to anions.

Assay [4] in a line: 1H NMR titration, binding of nitrate. Conditions: 25° C.
Source text: as §1, §2, §3

Assay [5] in a line: Isothermal titration calorimetry (ITC), I^−. Conditions: 25° C. It counts as binding. Here is the method: Isothermal titration calorimetry (ITC) experiments were performed using a MicroCal VP-ITC. ITC experiments were conducted by adding ~1.5 mL of a solution containing c5a to the sample cell. Followed by titrating 10 μL aliquots of a solution containing the corresponding TBA·X salt (~10-14× concentration of c5a solution) from the syringe into the sample cell. Heats of dilution were obtained by titrating 10 μL aliquots of the TBA·X solution from the syringe into the sample cell in the absence of c5a. The heats of dilution were subtracted from the raw data. ITC data processing and curve fitting was done using the Origin program (MicroCal).
Two-step competition ITC experiments for determining the Ka of c5a and iodide. In CH3CN:CHCl3 (5:95, v/v), the binding affinity of c5a for I^− was too high to be determined with direct NMR or ITC titration. Instead, two-step competition ITC experiments with Cl^− as the competitor were performed.
On the technique in general: Isothermal titration calorimetry measures the heat released or taken up as one component is titrated into another.

For `CCCCCCCCOCC(C)(C)C(=O)Nc1ccc2cc1C(=O)Nc1ccc(NC(=O)C(C)(C)COCCCCCCCC)c(c1)C(=O)Nc1ccc(NC(=O)C(C)(C)COCCCCCCCC)c(c1)C(=O)Nc1ccc(NC(=O)C(C)(C)COCCCCCCCC)c(c1)C(=O)Nc1ccc(NC(=O)C(C)(C)COCCCCCCCC)c(c1)C(=O)N2` [c5a], the “increase of ASL thickness vs control CF” value in assay [1] is listed as “more than 50%”. The compound also returned an ASL thickness in assay [1] (X-Z confocal) of 7.8±1.7 μm. For the same compound, the “Association constant Ka, 1:1 complex with Cl^−” value in assay [2] is “(4.31 ± 0.12) × 10^3 M^−1”. The “Association constant Ka, 1:1 complex with ClO4^−” value in assay [3] (single NMR titration (protons a and b)) is recorded as “(5.74 ± 0.51) × 10^4 M^−1”; in assay [3] (triplicate NMR titrations (footnote c)), “(9.60 ± 0.76) × 10^4 ^c M^−1”. Also, the “Association constant Ka, 1:1 complex with NO3^−” value is >10^6 M^−1 in assay [4] (CD3CN:CDCl3 (80:20, v/v), NMR titration); “(1.57 ± 0.13) × 10^5 M^−1” in assay [4] (DMSO-d6:CDCl3 (15:85, v/v), NMR titration (protons a and b)). Further, the “Association constant Ka, 1:1 complex with I^−” value in assay [5] (CH3CN:CHCl3 (5:95, v/v), two-step competition ITC with Cl^− as the competitor) was “(6.67 ± 0.81) × 10^7 ^f M^−1”; in assay [5] (CH3CN:CHCl3 (5:95, v/v), ITC), “(7.78 ± 4.26) × 10^7 M^−1”; in assay [5] (DMSO-d6:CDCl3 (15:85, v/v) column, ITC measurements (footnote d)), “(1.18 ± 0.03) × 10^4 ^d M^−1”; in assay [5] (DMSO:CHCl3 (5:95, v/v), ITC), “(1.83 ± 0.08) × 10^5 M^−1”.
